Laboratory results published in paper PMC3734177, “Design, Synthesis, Evaluation and Thermodynamics of 1-Substituted Pyridylimidazo[1,5-a]Pyridine Derivatives as Cysteine Protease Inhibitors” (PLoS ONE, 2013).
Values after ≈ are worked out from the molar mass of the structure shown. Like-named read-outs stand apart in the source and are kept apart here.

How the values were obtained:
Assay type in all cases: cell-based
[1] = system: Bacillus spp. (ATCC-14593); test: MIC, micro dilution method; details: ATCC14593; Bacillus sp.
[2] = system: Group D Streptococci (ATCC-12959); test: MIC, micro dilution method
Method: (§1) The disk diffusion method was used for the preliminary antibacterial evaluation of 1-pyridylimidazo[1,5-a]pyridine derivatives. The MIC50 of these derivatives, showing inhibition in the preliminary tests, were further determined by the microtitre plate technique using micro dilution method. In brief, the bacterial strains (S. aureus, P. vulgaris, Group D Streptococci, Bacillus sp., E. coli, P. aeruginosa and S. morganii)) were grown and diluted to 2×10^5 colony-forming units (CFU)/ml in sodium phosphate buffer (SPB) containing 0.03% Luria–Bertani (LB) broth. The synthesized derivatives were dissolved in DMSO and their serial dilution was performed in 50 µL of LB medium in 96-well microtitre plate to achieve the required concentrations (0.1–10 µg/ml) with bacterial inoculums (5×10^4 CFU per well). DMSO was taken as negative control and Ceftriaxone and clotrimazole were taken as positive control. After incubation at 37°C overnight, the MICs were taken as the lowest inhibitor concentration at which the bacterial growth was inhibited. The average of three values was calculated and that was the MIC for the test material and bacterial strain.
(§2) For the agar plate count method, 25 µL aliquots of bacteria at 1×10^5 CFU/ml in SPB containing 0.03% LB broth were incubated with 25 µL of diluted compounds for 2 h at 37°C. The mixtures of bacteria and compounds were serially diluted 10-fold with SPB and plated on LB plates that were incubated at 37°C overnight. Bacterial colonies were enumerated the following day.

[3] = system: Serratia morganii (ATCC- 31665); test: MIC, micro dilution method; details: ATCC31665
Method: as §1, §2

[4] = system: Proteus vulgaris (ATCC-29905); test: MIC, micro dilution method; details: ATCC29905, P. vulgaris
Method: as §1, with “strain. […]” for “strain.”

[5] = system: Pseudomonas aeruginosa (ATCC-27853); test: MIC, micro dilution method; details: ATCC27853
Method: as §1, with “strain. […]” for “strain.”

[6] = system: Bacillus spp. (ATCC-14593); test: MIC, micro dilution method; details: ATCC14593; Bacillus sp.; remark: listed apart in the source
Method: as §1, with “strain. […]” for “strain.”

[7] = system: Escherichia coli (ATCC-25922); test: MIC, micro dilution method; details: ATCC25922, E. coli
Method: as §1, with “strain. […]” for “strain.”

[8] = system: Staphylococcus aureus (ATCC-25923); test: MIC, micro dilution method; details: ATCC25923, S. aureus
Method: as §1, with “strain. […]” for “strain.”

[9] = system: Group D Streptococci (ATCC-12959); test: MBC, sub cultivation from MIC plate
Method: (§3) After having determined the MICs, bacterial strains from the wells of the microtitre plate with no visible bacterial growth were removed for serial sub cultivation of 2 µl into another new microtitre plate containing 100 µl of broth per well and further incubated for 24 h. The lowest concentration with no visible growth was defined as MBC [28], indicating 99.5% killing of the original inoculum. The absorbance of each well was measured at a wavelength of 620 nm by Microplate Manager 4.0 (Bio-Rad laboratories) and compared with a blank. Solvent (DMSO) was used as a negative control. Three replicates were done for each compound and experiment was repeated two times.

[10] = system: Proteus vulgaris (ATCC-29905); test: MBC, sub cultivation from MIC plate; details: ATCC29905, P. vulgaris
Method: as §3

[11] = system: Pseudomonas aeruginosa (ATCC-27853); test: MBC, sub cultivation from MIC plate
Method: as §3

[12] = system: Bacillus spp. (ATCC-14593); test: MBC, sub cultivation from MIC plate; details: ATCC14593, Bacillus sp.
Method: as §3

[13] = system: Escherichia coli (ATCC-25922); test: MBC, sub cultivation from MIC plate; details: ATCC25922, E. coli
Method: as §3

[14] = system: Staphylococcus aureus (ATCC-25923); test: MBC, sub cultivation from MIC plate; details: ATCC25923, S. aureus
Method: as §3

[15] = system: Serratia morganii (ATCC- 31665); test: MBC, sub cultivation from MIC plate
Method: as §3

Row | Compound | MIC50 [4] [µg/mL] | MIC90 [4] [µg/mL] | MIC50 [5] [µg/mL] | MIC90 [5] [µg/mL] | MIC50 [7] [µg/mL] | MIC90 [7] [µg/mL] | MIC50 [8] [µg/mL] | MIC90 [8] [µg/mL] | MBC ([10]; read-out: MBC50) [µg/mL] | MBC ([10]; read-out: MBC90) [µg/mL] | MBC ([11]; ATCC27853, read-out: MBC50) [µg/mL] | MBC ([11]; ATCC27853, read-out: MBC90) [µg/mL] | MBC ([13]; read-out: MBC50) [µg/mL] | MBC ([13]; read-out: MBC90) [µg/mL] | MBC ([14]; read-out: MBC50) [µg/mL] | MBC ([14]; read-out: MBC90) [µg/mL] | also measured
1 | CO/N=C(\C(=O)N[C@@H]1C(=O)N2C(C(=O)O)=C(CSc3nc(=O)c(=O)[nH]n3C)CS[C@H]12)c1csc(N)n1 [Ceftriaxone, reference compound] | 0.4 (≈ 0.721 µM) | 0.8 (≈ 1.44 µM) | 1.5 (≈ 2.7 µM) | 3 (≈ 5.41 µM) | 0.07 (≈ 0.126 µM) | 0.12 (≈ 0.216 µM) | 3.8 (≈ 6.85 µM) | 6 (≈ 10.8 µM) | 0.9 (≈ 1.62 µM) | 1.2 (≈ 2.16 µM) | 3.2 (≈ 5.77 µM) | 5.5 (≈ 9.92 µM) | 0.14 (≈ 0.252 µM) | 0.24 (≈ 0.433 µM) | 7 (≈ 12.6 µM) | 10 (≈ 18 µM) | MIC90 [1]: 1.6 µg/mL (≈ 2.89 µM); MIC50 [2]: 0.08 µg/mL (≈ 0.144 µM); MIC90 [2]: 1.4 µg/mL (≈ 2.52 µM); MIC50 [3]: 0.9 µg/mL (≈ 1.62 µM); MIC90 [3]: 1.5 µg/mL (≈ 2.7 µM); MIC50 [6]: 0.8 µg/mL (≈ 1.44 µM); MBC ([9]; read-out: MBC50): 1.5 µg/mL (≈ 2.7 µM); MBC ([9]; read-out: MBC90): 1.9 µg/mL (≈ 3.43 µM); MBC ([12]; read-out: MBC50): 1.7 µg/mL (≈ 3.07 µM); MBC ([12]; read-out: MBC90): 3.1 µg/mL (≈ 5.59 µM); MBC ([15]; ATCC31665, read-out: MBC50): 1.7 µg/mL (≈ 3.07 µM); MBC ([15]; ATCC31665, read-out: MBC90): 3.3 µg/mL (≈ 5.95 µM)
2 | Clc1ccccc1C(c1ccccc1)(c1ccccc1)n1ccnc1 [Clotrimazole, 1-[(2-chlorophenyl)(diphenyl)methyl]-1H-imidazole, reference compound] | 0.00084 (≈ 0.00244 µM) | 0.00145 (≈ 0.0042 µM) | 40 (≈ 116 µM) | 75 (≈ 217 µM) | 45 (≈ 130 µM) | 85 (≈ 246 µM) | 0.0009 (≈ 0.00261 µM) | 0.0016 (≈ 0.00464 µM) | 0.0014 (≈ 0.00406 µM) | 0.0032 (≈ 0.00928 µM) | 68 (≈ 197 µM) | 134 (≈ 389 µM) | 75 (≈ 217 µM) | 144 (≈ 418 µM) | 0.0014 (≈ 0.00406 µM) | 0.003 (≈ 0.0087 µM) | –
